Measurements taken from patent publication US20070027150A1 (priority 2005, published 2007).

The compounds below were run against His-tagged N-terminal ATP binding domain (amino acid residues 9-236) of HSP90α (Homo sapiens, UniProt P07900) (assay: HSP90 inhibitor binding potency: TRF competition binding assay). Settings: Table II; read-out: Hsp90 IC50 Range.
In short: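 Competition against biotinylated radicicol for binding to the His-tagged 9-236 ATP domain of HSP90α: 2 h, room temperature, HEPES/MgCl2/KCl/BSA buffer. Streptavidin capture, then europium-labeled anti-His antibody and enhancement solution; europium counts give IC50.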

IC50 [µM]	Compound
< 1	COc1cccc(-c2cc(Cl)ccc2C2CC(=O)c3c(C)nc(N)nc3C2)n1 (stereo not drawn) [Compound 251, 2-amino-7-[4-chloro-2-(6-methoxy-pyridin-2-yl)-phenyl]-4-methyl-7,8-dihydro-6H-quinazolin-5-one]
< 1	COc1ccc(-c2cccc(OC)n2)c(C2CC(=O)c3c(C)nc(N)nc3C2)c1 (stereo not drawn) [Compound 252, 2-amino-7-[5-methoxy-2-(6-methoxy-pyridin-2-yl)-phenyl]-4-methyl-7,8-dihydro-6H-quinazolin-5-one]
< 1	COc1ccc(-c2cccnc2OC)c(C2CC(=O)c3c(C)nc(N)nc3C2)c1 (stereo not drawn) [Compound 253, 2-amino-7-[5-methoxy-2-(2-methoxy-pyridin-3-yl)-phenyl]-4-methyl-7,8-dihydro-6H-quinazolin-5-one]
< 1	COc1ccc(-c2cncc(OC)n2)c(C2CC(=O)c3c(C)nc(N)nc3C2)c1 (stereo not drawn) [Compound 254, 2-amino-7-[5-methoxy-2-(6-methoxy-pyrazin-2-yl)-phenyl]-4-methyl-7,8-dihydro-6H-quinazolin-5-one]
< 1	Cc1nc(N)nc2c1C(=O)CC(c1ccc(F)cc1OC1CCCC1)C2 (stereo not drawn) [Compound 255, 2-amino-7-(2-cyclopentyloxy-4-fluoro-phenyl)-4-methyl-7,8-dihydro-6H-quinazolin-5-one]
> 10	COc1cccc(-c2cc(F)c(C3CC(=O)c4c(C)nc(N)nc4C3)c(F)c2)n1 (stereo not drawn) [Compound 256, 2-amino-7-[2,6-difluoro-4-(6-methoxy-pyridin-2-yl)-phenyl]-4-methyl-7,8-dihydro-6H-quinazolin-5-one]
< 1	COc1ccnc(-c2cc(F)ccc2C2CC(=O)c3c(C)nc(N)nc3C2)n1 (stereo not drawn) [Compound 257, 2-amino-7-[4-fluoro-2-(4-methoxy-pyrimidin-2-yl)-phenyl]-4-methyl-7,8-dihydro-6H-quinazolin-5-one]
> 10	COc1nccc(-c2cc(F)ccc2C2CC(=O)c3c(C)nc(N)nc3C2)n1 (stereo not drawn) [Compound 258, 2-amino-7-[4-fluoro-2-(2-methoxy-pyrimidin-4-yl)-phenyl]-4-methyl-7,8-dihydro-6H-quinazolin-5-one]
< 1	COc1nc(-c2cc(F)ccc2C2CC(=O)c3c(C)nc(N)nc3C2)ncc1C (stereo not drawn) [Compound 259, 2-amino-7-[4-fluoro-2-(4-methoxy-5-methyl-pyrimidin-2-yl)-phenyl]-4-methyl-7,8-dihydro-6H-quinazolin-5-one]
1 to 10	COc1cccc(-c2cc(F)ccc2[C@H]2CC(=O)c3c(C)nc(N)nc3C2)n1 [Compound 260, (R)-2-amino-7-[4-fluoro-2-(6-methoxy-pyridin-2-yl)-phenyl]-4-methyl-7,8-dihydro-6H-quinazolin-5-one]
< 1	COc1cccc(-c2cc(F)ccc2[C@@H]2CC(=O)c3c(C)nc(N)nc3C2)n1 [Compound 261, (S)-2-amino-7-[4-fluoro-2-(6-methoxy-pyridin-2-yl)-phenyl]-4-methyl-7,8-dihydro-6H-quinazolin-5-one]
< 1	Cc1nc(N)nc2c1C(=O)CC(c1ccc(F)cc1OCCC1CC1)C2 (stereo not drawn) [Compound 262, 2-amino-7-[2-(2-cyclopropyl-ethoxy)-4-fluoro-phenyl]-4-methyl-7,8-dihydro-6H-quinazolin-5-one]
< 1	Cc1nc(N)nc2c1C(=O)CC(c1ccc(F)cc1OCC1CCCC1)C2 (stereo not drawn) [Compound 263, 2-amino-7-(2-cyclopentylmethoxy-4-fluoro-phenyl)-4-methyl-7,8-dihydro-6H-quinazolin-5-one]
1 to 10	Cc1nc(N)nc2c1C(=O)CC(c1ccc(F)cc1-c1cccc(O)n1)C2 (stereo not drawn) [Compound 264, 2-amino-7-[4-fluoro-2-(6-hydroxy-pyridin-2-yl)-phenyl]-4-methyl-7,8-dihydro-6H-quinazolin-5-one]
1 to 10	Cc1nc(N)nc2c1C(=O)CC(c1ccc(F)cc1OCc1ccccc1)C2 (stereo not drawn) [Compound 265, 2-amino-7-(2-benzyloxy-4-fluoro-phenyl)-4-methyl-7,8-dihydro-6H-quinazolin-5-one]
< 1	CCC(CC)Oc1cc(F)ccc1C1CC(=O)c2c(C)nc(N)nc2C1 (stereo not drawn) [Compound 267, 2-amino-7-[2-(1-ethyl-propoxy)-4-fluoro-phenyl]-4-methyl-7,8-dihydro-6H-quinazolin-5-one]
< 1	Cc1nc(N)nc2c1C(=O)CC(c1ccc(F)cc1OC1CCCC1C)C2 (stereo not drawn) [Compound 268, 2-amino-7-[4-fluoro-2-(2-methyl-cyclopentyloxy)-phenyl]-4-methyl-7,8-dihydro-6H-quinazolin-5-one]
1 to 10	Cc1nc(N)nc2c1C(=O)CC(c1ccc(F)cc1-c1cnc(N)nc1)C2 (stereo not drawn) [Compound 269, 2-amino-7-[2-(2-amino-pyrimidin-5-yl)-4-fluoro-phenyl]-4-methyl-7,8-dihydro-6H-quinazolin-5-one]
< 1	Cc1nc(N)nc2c1C(=O)CC(c1ccc(F)cc1-c1ncc(C(F)(F)F)cn1)C2 (stereo not drawn) [Compound 270, 2-amino-7-[4-fluoro-2-(5-trifluoromethyl-pyrimidin-2-yl)-phenyl]-4-methyl-7,8-dihydro-6H-quinazolin-5-one]
< 1	COc1nc(-c2cc(F)ccc2C2CC(=O)c3c(C)nc(N)nc3C2)ncc1Cl (stereo not drawn) [Compound 272, 2-amino-7-[2-(5-chloro-4-methoxy-pyrimidin-2-yl)-4-fluoro-phenyl]-4-methyl-7,8-dihydro-6H-quinazolin-5-one]
< 1	COc1nc(Cl)ncc1-c1cc(F)ccc1C1CC(=O)c2c(C)nc(N)nc2C1 (stereo not drawn) [Compound 273, 2-amino-7-[2-(2-chloro-4-methoxy-pyrimidin-5-yl)-4-fluoro-phenyl]-4-methyl-7,8-dihydro-6H-quinazolin-5-one]
< 1	COc1nc(-c2cc(F)ccc2[C@H]2CC(=O)c3c(C)nc(N)nc3C2)ncc1C [Compound 274, (R)-2-amino-7-[4-fluoro-2-(4-methoxy-5-methyl-pyrimidin-2-yl)-phenyl]-4-methyl-7,8-dihydro-6H-quinazolin-5-one]
< 1	COc1nc(-c2cc(F)ccc2[C@@H]2CC(=O)c3c(C)nc(N)nc3C2)ncc1C [Compound 275, (S)-2-amino-7-[4-fluoro-2-(4-methoxy-5-methyl-pyrimidin-2-yl)-phenyl]-4-methyl-7,8-dihydro-6H-quinazolin-5-one]
< 1	COc1cnc(-c2cc(F)ccc2C2CC(=O)c3c(C)nc(N)nc3C2)nc1OC (stereo not drawn) [Compound 276, 2-amino-7-[2-(4,5-dimethoxy-pyrimidin-2-yl)-4-fluoro-phenyl]-4-methyl-7,8-dihydro-6H-quinazolin-5-one]
< 1	Nc1ncc2c(n1)CC(c1ccc(F)cc1-c1cccnc1F)CC2=O (stereo not drawn) [Compound 277, 2-amino-7-[4-fluoro-2-(2-fluoro-pyridin-3-yl)-phenyl]-7,8-dihydro-6H-quinazolin-5-one]
< 1	COc1ncncc1-c1cc(F)ccc1C1CC(=O)c2c(C)nc(N)nc2C1 (stereo not drawn) [Compound 278, 2-amino-7-[4-fluoro-2-(4-methoxy-pyrimidin-5-yl)-phenyl]-4-methyl-7,8-dihydro-6H-quinazolin-5-one]

Compound	IC50 [µM]
Cc1nc(N)nc2c1C(=O)CC(c1ccc(F)cc1OCC(C)C)C2 (stereo not drawn) [Compound 266, 2-amino-7-(4-fluoro-2-isobutoxy-phenyl)-4-methyl-7,8-dihydro-6H-quinazolin-5-one]	< 1
